Laboratory results reported in PubChem BioAssay (NCI).
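A five-concentration, 48-hour dose response in 96-well plates underlies each endpoint, interpolated linearly between surrounding concentrations. TGI: total growth inhibition.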

How the values were obtained:
Assay in all cases: inhibition of tumour cell growth, NCI panel, 48 h
[1] = system: DMS 114 small cell lung
[2] = system: ACHN renal
[3] = system: LXFL 529 NSCLC
[4] = system: SNB-78 CNS
[5] = system: CAKI-1 renal
[6] = system: A498 renal
[7] = system: NCI-H522 lung
[8] = system: RPMI-8226 leukemia
[9] = system: M19-MEL melanoma
[10] = system: EKVX NSCLC
[11] = system: HCT-15 colon
[12] = system: OVCAR-4 ovarian

Structure (SMILES)	TGI [1] [µM]	TGI [2] [µM]	TGI [3] [µM]	TGI [4] [µM]	TGI [5] [µM]	TGI [6] [µM]	TGI [7] [µM]	TGI [8] [µM]	TGI [9] [µM]	TGI [10] [µM]	TGI [11] [µM]	TGI [12] [µM]
CCN(c1ccccc1)[C@H]1C(=O)N(c2ccc([N+](=O)[O-])cc2)[C@H]1c1ccc(OC)cc1	> 100	> 100	> 100	> 100	> 100	> 100	> 100	> 100	> 100	> 100	–	–
Cc1ccc(OC(=O)N2C/C(=C\c3ccccc3)C(=O)/C(=C/c3ccccc3)C2)cc1	59.4	80.9	30.6	82.3	> 100	> 100	33.8	1.9	18.9	> 100	> 100	32.2
Cc1cc(Cl)ccc1NC(=O)C1C(=O)N(c2ccc(Cl)cc2C)C(=O)/C1=N\NC(N)=S (stereo not given)	98.7	> 100	98.5	> 100	–	72.4	34.4	> 100	> 100	51.8	34.4	69.7
COc1cc2c(c(OC)c1OC)C(=O)NCCC2	> 100	> 100	> 100	> 100	> 100	> 100	> 100	> 100	> 100	> 100	> 100	> 100
C[C@H]1CC[P+](C)(c2ccccc2)C1 (stereo not given in full)	> 100	> 100	> 100	> 100	–	> 100	> 100	> 100	> 100	> 100	> 100	–
Cc1ccc2ccc(-c3ccccc3)c3c2c1C(=O)c1ccccc1C3=O	> 100	> 100	> 100	> 100	–	> 100	> 100	> 100	> 100	> 100	–	–
COc1ccccc1C(=O)N(Cc1ccccc1)c1ccc(Cl)c(C(=O)OC(C)C)c1	56	96.8	> 100	78	71.1	> 100	18.3	29	> 100	> 87.8	> 100	> 100
O=c1[nH]cnc2n[nH]nc12	56.1	> 100	> 100	56.7	> 100	> 100	53.3	> 65.9	> 79.9	> 100	> 100	> 84.8
Cc1ccc(S(=O)C(C)C(Cl)c2ccccc2)cc1 (stereo not given)	> 100	> 100	> 100	> 100	> 100	> 100	> 100	> 100	> 100	–	> 100	> 100
COc1cccc(/C=N\NC(=O)C(C)SC(C)C(=O)N/N=C/c2cccc(OC)c2)c1 (stereo not given)	41.6	35.6	> 100	> 100	> 80.8	27	59.1	> 82.3	> 100	60.2	> 100	31.9
CC1(C)OC(=O)C(=C2CCC(C(=O)Nc3cccc(C(F)(F)F)c3)N2)C(=O)O1 (stereo not given)	> 100	> 100	> 100	> 100	26.6	> 100	> 100	> 100	> 100	> 100	> 100	> 100
COc1ccccc1NC(=O)C1=C(C)NC(C)=C(C(=O)Nc2ccccc2OC)C1c1ccco1	7.53	> 100	> 100	> 100	> 24.1	38.4	8.6	76.1	> 100	> 83.7	> 100	88.2
